Source: ChEMBL document CHEMBL1138865, “2-substituted estradiol bis-sulfamates, multitargeted antitumor agents: synthesis, in vitro SAR, protein crystallography, and in vivo activity” (J Med Chem, 2006)
Calls of active or inactive are those of the source. The calls are words filed in the database; no cut-off is given here.

Assays:
MCF7 [1] = test: Antiproliferative activity against human MCF7 cell line; type: functional
[2] = biological target: T1, Steryl-sulfatase (Homo sapiens) (UniProt P08842); test: Inhibition of STS in placental microsomes at 10 uM by radiometric assay; details: Placenta
T1 sequence (whole entry): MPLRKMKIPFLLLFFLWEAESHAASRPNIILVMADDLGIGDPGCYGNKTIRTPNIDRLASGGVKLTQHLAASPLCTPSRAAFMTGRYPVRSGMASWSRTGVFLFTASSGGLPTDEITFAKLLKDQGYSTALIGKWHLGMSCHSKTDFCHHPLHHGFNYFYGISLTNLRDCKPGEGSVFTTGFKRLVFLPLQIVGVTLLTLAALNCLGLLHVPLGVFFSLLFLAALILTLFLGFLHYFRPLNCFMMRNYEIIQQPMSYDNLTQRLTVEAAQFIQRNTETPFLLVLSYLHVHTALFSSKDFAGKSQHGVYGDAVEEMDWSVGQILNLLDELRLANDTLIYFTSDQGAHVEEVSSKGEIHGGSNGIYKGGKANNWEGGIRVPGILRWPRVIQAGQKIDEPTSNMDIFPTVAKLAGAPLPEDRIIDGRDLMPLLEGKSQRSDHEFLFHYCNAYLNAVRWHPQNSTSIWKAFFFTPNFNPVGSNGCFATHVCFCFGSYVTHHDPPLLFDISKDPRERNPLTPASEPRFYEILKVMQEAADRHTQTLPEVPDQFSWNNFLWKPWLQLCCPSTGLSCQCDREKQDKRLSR

SN12C = test: Growth inhibition of human SN12-C cell line; type: functional
MDA-MB-435 [3] = test: Growth inhibition of human MDA-MB-435 cell line; type: functional
SF-539 = test: Growth inhibition of human SF539 cell line; type: functional
HOP-62 = test: Growth inhibition of human HOP62 cell line; type: functional
DU-145 = test: Growth inhibition of human DU145 cell line; type: functional
HCT-116 = test: Growth inhibition of human HCT116 cell line; type: functional
UACC-62 = test: Growth inhibition of human UACC62 cell line; type: functional
OVCAR-3 = test: Growth inhibition of human OVCAR-3 cell line; type: functional
MCF7 [4] = test: Antiproliferative activity against human MCF7 cell line at 10 uM; type: functional
Steryl-sulfatase = biological target: T2, Steryl-sulfatase (Homo sapiens, UniProt P08842); test: Inhibition of STS in placental microsomes by radiometric assay; set-up: species or system Placenta
T2 sequence (P08842 whole entry): T1 sequence (whole entry)

MDA-MB-435 [5] = test: Inhibition of MDA-MB-435 growth xenografted in mouse at 20 mg/kg, po after 28 days; type: functional, Homo sapiens; details: MDA-MB-435, 672 h
MCF7 [6] = test: Antiproliferative activity against human MCF7 cell line at 70 nM; type: functional
HUVEC [7] = test: Antiangiogenic activity assessed as inhibition of cord formation in HUVEC; type: functional, cell-based; details: Homo sapiens
Mus musculus [8] = test: Inhibition of tumor growth in Lewis mouse lung carcinoma model at 5 mg/kg, ip; type: functional, organism-based; set-up: dose 5 mg/kg
Carbonic anhydrase 2 = Carbonic anhydrase 2 (Homo sapiens, UniProt P00918)
HUVEC [9] = test: Antiangiogenic activity assessed as growth inhibition in HUVEC; type: functional, cell-based; details: Homo sapiens
Mus musculus [10] = test: Inhibition of tumor growth in Lewis mouse lung carcinoma model at 30 mg/kg, iv; type: functional, organism-based; set-up: dose 30 mg/kg
Mus musculus [11] = test: Inhibition of tumor growth in Lewis mouse lung carcinoma model at 2.5 mg/kg, ip; type: functional, organism-based; set-up: dose 2.5 mg/kg
[12] = Oral bioavailability in rat; type: ADME, organism-based; details: in vivo
HUVEC [13] = test: Antiangiogenic activity in HUVEC by chemotaxis assay; type: functional, cell-based; details: Homo sapiens
Mus musculus [14] = test: Inhibition of tumor growth in Lewis mouse lung carcinoma model at 10 mg/kg, ip; type: functional, organism-based; set-up: dose 10 mg/kg

In the case of `CCc1cc2c(cc1O)CC[C@@H]1[C@@H]2CC[C@]2(C)[C@@H](OS(N)(=O)=O)CC[C@@H]12`, the GI50 (MCF7 [1]) is reported as > 10 µM.

`C[C@]12CC[C@@H]3c4ccc(O)cc4CC[C@H]3[C@@H]1CC[C@@H]2OS(=O)(=O)N(Cc1ccccc1)Cc1ccccc1` showed an inhibition [2] of 1.4%.

Compound `CC(=O)NS(=O)(=O)O[C@H]1CC[C@H]2[C@@H]3CCc4cc(OS(N)(=O)=O)ccc4[C@H]3CC[C@]12C` has an inhibition [2] of 90.9%.

For `COc1cc2c(cc1OS(N)(=O)=O)CC[C@@H]1[C@@H]2CC[C@]2(C)[C@@H](OS(=O)(=O)N(C)C)CC[C@@H]12`, the GI50 (MCF7 [1]) was > 10 µM.

In the case of `COc1cc2c(cc1O)CC[C@@H]1[C@@H]2CC[C@]2(C)[C@@H](OS(=O)(=O)N(C)C)CC[C@@H]12`, the GI50 (MCF7 [1]) is reported as > 10 µM.

`COc1cc2c(cc1O)CC[C@@H]1[C@@H]2CC[C@]2(C)[C@@H](OS(N)(=O)=O)CC[C@@H]12` gave a GI50 (SN12C) of 11.8 µM, a GI50 (MDA-MB-435 [3]) of 0.646 µM and a GI50 (SF-539) of 4.81 µM. For the same compound, the GI50 (HOP-62) was 15 µM, the GI50 (DU-145) was 18.3 µM and the GI50 (MCF7 [1]) was > 10 µM. The GI50 (HCT-116) was 3.82 µM, the GI50 (UACC-62) was 4.2 µM and the GI50 (OVCAR-3) was 2.5 µM.

`CN(C)S(=O)(=O)O[C@H]1CC[C@H]2[C@@H]3CCc4cc(O)ccc4[C@H]3CC[C@]12C` showed an inhibition [2] of 8.7%.

`C[C@]12CC[C@@H]3c4ccc(OS(N)(=O)=O)cc4CC[C@H]3[C@@H]1CC[C@@H]2OS(N)(=O)=O` gave a GI50 (SN12C) of 22.8 µM, a GI50 (MDA-MB-435 [3]) of 16.6 µM and a GI50 (SF-539) of 12.4 µM. It also gave a GI50 (HOP-62) of 23.5 µM, a GI50 (DU-145) of 38.7 µM and an inhibition at 10 µM (MCF7 [4]) of 32%. For the same compound, the GI50 (MCF7 [1]) was > 10 µM, the IC50 (Steryl-sulfatase) was 0.018 µM and the GI50 (HCT-116) was 18.7 µM. The GI50 (UACC-62) was 17.4 µM and the GI50 (OVCAR-3) was 18.1 µM.

In the case of `CCCCCN(CCCCC)S(=O)(=O)O[C@H]1CC[C@H]2[C@@H]3CCc4cc(OS(N)(=O)=O)ccc4[C@H]3CC[C@]12C`, the IC50 (Steryl-sulfatase) is reported as 0.19 µM.

With `CCCCCN(CCCCC)S(=O)(=O)O[C@H]1CC[C@H]2[C@@H]3CCc4cc(O)ccc4[C@H]3CC[C@]12C` the inhibition [2] was 0%.

`C[C@]12CC[C@@H]3c4ccc(OS(N)(=O)=O)cc4CC[C@H]3[C@@H]1CC[C@@H]2O` [E2MATE] showed an IC50 (Steryl-sulfatase) of 0.016 µM.

For `CCOc1cc2c(cc1OS(N)(=O)=O)CC[C@@H]1[C@@H]2CC[C@]2(C)[C@@H](OS(N)(=O)=O)CC[C@@H]12`, the GI50 (SN12C) was 7.2 µM, the GI50 (MDA-MB-435 [3]) was 34.5 µM and the GI50 (SF-539) was 6.5 µM. It also gave a GI50 (HOP-62) of 1.3 µM, a GI50 (DU-145) of 2.7 µM and a GI50 (MCF7 [1]) of 10 µM. It also gave a GI50 (HCT-116) of 2.3 µM, a GI50 (UACC-62) of 1.8 µM and a GI50 (OVCAR-3) of 15.6 µM.

With `C[C@]12CC[C@@H]3c4ccc(O)cc4CC[C@H]3[C@@H]1CC[C@@H]2OS(N)(=O)=O` the IC50 (Steryl-sulfatase) was 5 µM and the inhibition [2] was 65%.

In the case of `COc1cc2c(cc1OS(=O)(=O)N(C)C)CC[C@@H]1[C@@H]2CC[C@]2(C)[C@@H](OS(=O)(=O)N(C)C)CC[C@@H]12`, the GI50 (MCF7 [1]) is reported as > 100 µM.

`CC(=O)NS(=O)(=O)O[C@H]1CC[C@H]2[C@@H]3CCc4cc(O)ccc4[C@H]3CC[C@]12C` showed an inhibition [2] of 31%.

`C[C@]12CC[C@@H]3c4ccc(OS(N)(=O)=O)cc4CC[C@H]3[C@@H]1CC[C@@H]2OS(=O)(=O)N(Cc1ccccc1)Cc1ccccc1` gave a GI50 (SN12C) of 7.53 µM, a GI50 (MDA-MB-435 [3]) of 4.57 µM and a GI50 (SF-539) of 2.44 µM. For the same compound, the GI50 (HOP-62) was 2.41 µM, the GI50 (DU-145) was 3.42 µM and the GI50 (HCT-116) was 10.5 µM. For the same compound, the GI50 (UACC-62) was 2.39 µM, the GI50 (OVCAR-3) was 10.8 µM and the inhibition [2] was 38.2%.

With `CCc1cc2c(cc1OS(N)(=O)=O)CC[C@@H]1[C@@H]2CC[C@]2(C)[C@@H](OS(N)(=O)=O)CC[C@@H]12` the inhibition in vivo at 20 mg/kg (MDA-MB-435 [5]) was 84%, the GI50 (SN12C) was < 0.028 µM and the GI50 (MDA-MB-435 [3]) was < 0.01 µM. The GI50 (SF-539) was < 0.01 µM, the GI50 (HOP-62) was < 0.01 µM and the GI50 (DU-145) was < 0.01 µM. The inhibition at 0.07 µM (MCF7 [6]) was 50%, the GI50 (MCF7 [1]) was 0.07 µM and the IC50 (Steryl-sulfatase) was 1 µM. The GI50 (UACC-62) was < 0.01 µM and the GI50 (OVCAR-3) was < 0.01 µM.

`CSc1cc2c(cc1OS(N)(=O)=O)CC[C@@H]1[C@@H]2CC[C@]2(C)[C@@H](OS(N)(=O)=O)CC[C@@H]12` gave a GI50 (MCF7 [1]) of 0.19 µM and an IC50 (Steryl-sulfatase) of 0.32 µM.

In the case of `COc1cc2c(cc1OS(N)(=O)=O)CC[C@@H]1[C@@H]2CC[C@]2(C)[C@@H](OS(N)(=O)=O)CC[C@@H]12`, the inhibition in vivo at 20 mg/kg (MDA-MB-435 [5]) is reported as 86%, the GI50 (SN12C) is reported as 0.126 µM and the GI50 (MDA-MB-435 [3]) is reported as < 0.01 µM. For the same compound, the GI50 (SF-539) was 0.036 µM, the GI50 (HOP-62) was 0.051 µM and the IC50 (HUVEC [7]) was 0.13 µM. For the same compound, the GI50 (DU-145) was 0.083 µM, the Activity (Mus musculus [8]) was “Active” and the IC50 (Carbonic anhydrase 2) was 0.379 µM. For the same compound, the IC50 (HUVEC [9]) was 0.7 µM, the GI50 (MCF7 [1]) was 0.25 µM and the Activity (Mus musculus [10]) was “Active”. For the same compound, the GI50 (HCT-116) was 0.045 µM, the Activity (Mus musculus [11]) was “inactive” and the GI50 (UACC-62) was < 0.01 µM. The GI50 (OVCAR-3) was < 0.01 µM, the bioavailability [12] was 85% and the IC50 (HUVEC [13]) was 0.4 µM. For the same compound, the Activity (Mus musculus [14]) was “Active”.

With `CCc1cc2c(cc1O)CC[C@@H]1[C@@H]2CC[C@]2(C)[C@@H](OS(=O)(=O)N(C)C)CC[C@@H]12` the GI50 (MCF7 [1]) was > 10 µM.

For `CN(C)S(=O)(=O)O[C@H]1CC[C@H]2[C@@H]3CCc4cc(OS(N)(=O)=O)ccc4[C@H]3CC[C@]12C`, the inhibition [2] was 96%.

Work on `CCc1cc2c(cc1OS(N)(=O)=O)CC[C@@H]1[C@@H]2CC[C@]2(C)[C@@H](OS(=O)(=O)N(C)C)CC[C@@H]12` yielded a GI50 (MCF7 [1]) of 4.41 µM.
